Measurements published in EP4803513A1, “SUBSTITUTED QUINAZOLINE COMPOUND, PREPARATION METHOD THEREFOR, PHARMACEUTICAL COMBINATION THEREOF, AND USE THEREOF” (Hongyun Biotech Co., Ltd., priority 2023, dated 2025).

How the values were obtained:
[1] = tested on: GA6871; assay: In vitro activity test of gastric cancer PDX (CellTiter-Glo), GA6871; type: cell-based; conditions: PDX GA6871, gastric cancer with high BRK expression, 168 hours
Experimental: (§1) Patient-derived xenograft (PDX) models are methods in which tumor tissue from cancer patients is transplanted into severely immunodeficient mice for culture and passaging, and used to test compound activity. The compounds of the present invention were tested using three PDX samples (GA0119, GA6208, and GA6871, all being gastric cancers with high BRK expression, all cultured in DMEM).
(§2) Preparation of PDX model tumor cell suspension: PDX model animals were housed in the animal facility, and tumor growth was observed weekly. When the PDX model tumor grew to an appropriate size, the tumor was removed and minced using sterile surgical instruments. Collagenase B digestion solution was added, and digestion was performed at 37°C for approximately 2 hours. Undigested tissue was removed by passing through a cell strainer. The strainer was washed with PBS 3-5 times, and the cell pellet was washed with PBS 4 times. Tumor cells were resuspended in culture medium. ACK lysis buffer was used to remove red blood cells when necessary.
(§3) Cell plating: The above cell suspension was taken and counted. The cell suspension concentration was adjusted to 5.75 × 10^5 cells/mL by dilution with culture medium. 3.5 mL of the cell suspension and 6.5 mL of 1% methylcellulose solution were mixed thoroughly. 100 µL of the cell suspension was added to each well of a 96-well plate (including compound-treated cell plates and T0 control cell plates), followed by incubation overnight under conditions of 37°C, 5% CO2, and 95% humidity.
(§4) Day 0 cell viability reading: The CellTiter-Glo® reagent and T0 control cell culture plate were equilibrated at room temperature for 30 minutes. 100 µL of CellTiter-Glo® reagent was added to each well. The plate was shaken on an orbital shaker for 20 minutes to ensure complete cell lysis. The cell culture plate was then equilibrated at room temperature for 10 minutes, and the chemiluminescence signal was read using an EnVision plate reader.
(§5) Day 0 compound treatment: The test compound (stock concentration 10 mM) was taken out and equilibrated at room temperature for use. The compound treatment cell plate was taken out. The test compound solution was added to the corresponding wells. The highest concentration for each compound was 30 µM, with 3-fold serial dilutions, 9 concentration points, each concentration point in triplicate (DMSO concentration normalized). The final concentration of DMSO in each cell well was 0.3%. The dosed 96-well plate was then placed in an incubator at 37°C, 5% CO2, and 95% humidity for continued culture for 168 hours.
(§6) Day 7 cell viability reading: The CellTiter-Glo® reagent and cell culture plate were equilibrated at room temperature for 30 minutes. 100 µL of CellTiter-Glo® reagent was added to each well. The plate was shaken on an orbital shaker for 20 minutes to lyse the cells. The cell plate was then placed at room temperature for 10 minutes to stabilize the luminescence signal, and the luminescence value was read using an EnVision plate reader.
(§7) Data processing: Data were analyzed using GraphPad Prism 9.0 software. A nonlinear sigmoidal curve regression was used to fit the data and generate a dose-response curve, from which the IC50 value was calculated. Cell survival rate (%) = (Lumtest compound - Lummedium control) / (Lumcell control - Lummedium control) × 100%. Lum represents the luminescence value.

[2] = tested on: WT-BaF3 cells; assay: Cell antiproliferative activity assay (CCK-8), WT-BaF3 (broad-spectrum cytotoxicity); type: cell-based; conditions: 72 h; WT-BaF3 cells (IL-3 supplemented), CCK-8, 3 days incubation
Method in brief: (§8)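 Growth inhibition over 3 days, with compound serially diluted 3-fold from a 10 µM top concentration. Cells seeded at 100,000 cells/mL; WT-BaF3 medium carried 10% WEHI supernatant as the IL-3 source. Viability read by CCK-8 OD450 after 2-4 h; IC50 from blank-subtracted curve fit.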

[3] = tested on: gastric cancer xenograft model GA6208; assay: In vivo efficacy evaluation of gastric cancer PDX (GA6208); design: species or system Balb/c nude mice; conditions: for Day 35 tumor volume (mean ± SEM): I-21 100 mg/kg oral gavage twice daily, I-81 100/80 mg/kg oral gavage twice daily, cisplatin 3 mg/kg tail vein once weekly, in mm³ (unit assumed); for Day 35 TGI (%): tumor growth inhibition vs vehicle control, same dosing as tumor volume
From the text: Tumor tissue was collected from tumor-bearing mice of the gastric cancer xenograft model GA6208, cut into tumor pieces of 2-3 mm in diameter, and subcutaneously inoculated at the right front scapular region of Balb/c nude mice. When the mean tumor volume of the tumor-bearing mice reached approximately 150 mm^3 (100-200 mm^3), the mice were randomly divided into 4 groups of 8 mice each, and administered as follows: vehicle control (0.5% CMC-Na solution, oral gavage, twice daily), compound I-21 (100 mg/kg, oral gavage, twice daily), compound I-81 (100 mg/kg for the first 8 days, then 80 mg/kg for the subsequent 27 days, oral gavage, twice daily), and cisplatin (3 mg/kg, tail vein injection, once weekly), for a total of 35 days.

[4] = tested on: BRK-BaF3 cells; assay: Cell antiproliferative activity assay (CCK-8), BRK-BaF3; type: cell-based; conditions: 72 h, CCK-8, 3 days incubation
Method in brief: as §8

[5] = tested on: GA6208; assay: In vitro activity test of gastric cancer PDX (CellTiter-Glo), GA6208; type: cell-based; conditions: PDX GA6208, gastric cancer with high BRK expression, 168 hours
Experimental: as §1, §2, §3, §4, §5, §6, §7

[6] = tested on: GA0119; assay: In vitro activity test of gastric cancer PDX (CellTiter-Glo), GA0119; type: cell-based; conditions: PDX GA0119, gastric cancer with high BRK expression, 168 hours
Experimental: as §1, §2, §3, §4
Day 0 compound treatment: The test compound (stock concentration 10 mM) was taken out and equilibrated at room temperature for use. The compound treatment cell plate was taken out. The test compound solution was added to the corresponding wells. […]
as §6, with “100 µL of CellTiter-Glo® reagent was added to each well. The plate was shaken on an orbital shaker for 20 minutes to lyse the cells.” left out
Data processing: Data were analyzed using GraphPad Prism 9.0 software. A nonlinear sigmoidal curve regression was used to fit the data and generate a dose-response curve, from which the IC50 value was calculated. […] Lum represents the luminescence value.

[7] = tested on: T47D cells; assay: Cell antiproliferative activity assay (CCK-8), T47D; type: cell-based; conditions: Homo sapiens, 72 h, breast cancer cell line T47D, incubation for 3 days
Experimental: BRK-BaF3, WT-BaF3, WEHI cell line, and breast cancer cell line T47D were cultured using RPMI 1640 Basal medium or DMEM (Dulbecco's Modified Eagle Medium) (Shanghai Peiyuan Biotechnology, L220KJ), supplemented with 10% FBS (Gibco, REF 10099-141C) and 1% P/S (Shanghai Peiyuan Biotechnology, S110JV), in an incubator (Thermo 3020) at 37°C with 5% CO2. Cell viability was above 95%. Cells were passaged at a 3:1 ratio every 3-4 days. For WT-BaF3 cells, WEHI cells were first cultured, and their culture supernatant was filtered through a 0.22 µm filter. This supernatant was added at 10% to the regular culture medium to supplement IL-3 required for WT-BaF3 cell proliferation, which served as the culture medium for WT-BaF3. For testing, cells were first collected and counted, then prepared into a cell suspension at 100,000 cells/mL and plated at 100 µL per well. Drug concentrations started from 10 µM and were serially diluted 3:1. After incubation for 3 days, 20 µL of CCK-8 detection reagent (Targetmol C005) was added to each well. After incubation for 2-4 hours, OD450 was measured using a microplate reader (Varioskan LUX, Thermo Scientific). After subtracting the blank background, the curve was fitted and the IC50 was calculated using XLfit software.
In addition, the following table exemplarily lists the IC50 values of some compounds of the present invention against T47D cells.

Compound	IC50 [1] [nM]	IC50 [2] [nM]	Day 35 tumor volume (mean ± SEM) [3]	Day 35 TGI (%) [3] [%]	IC50 [4] [nM]	IC50 [5] [nM]	IC50 [6] [nM]	IC50 [7] [nM]
Cc1nn(CCO)cc1Nc1ncc2cc(-c3cccnc3)cc(C(C)C)c2n1 [I-21]	2130	> 2500	782.88±71.02	44.59	≤ 20	620	1140	–
Cc1nn(CCO)cc1Nc1ncc2cc(-c3nccnc3C)cc(C(C)C)c2n1 [I-81]	7130	> 2500	595.03±30.63	57.89	≤ 20	3920	4540	–
Cc1nn(CCO)cc1Nc1ncc2cc(-c3nccnc3C)cc(C(F)(F)F)c2n1 [I-109]	17000	> 2500	–	–	≤ 20	8530	–	–
COc1c(P(C)(C)=O)ccc(Nc2ncc3cc(-c4nccnc4C)cc(C4CC4)c3n2)c1F [II-69]	9280	> 2500	–	–	≤ 20	5630	8010	≤ 500
COc1nc(Nc2ncc3cc(-c4nccnc4C)cc(C4CC4)c3n2)ccc1P(C)(C)=O [II-71]	–	500 to 2500	–	–	≤ 20	–	–	≤ 500
CCOc1cc(Nc2ncc3cc(-c4nccnc4C)cc(C4CC4)c3n2)ccc1P(C)(C)=O [II-72]	–	500 to 2500	–	–	≤ 20	–	–	≤ 500
CCP(=O)(CC)c1ccc(Nc2ncc3cc(-c4nccnc4C)cc(C4CC4)c3n2)cc1OC [II-74]	–	500 to 2500	–	–	≤ 20	–	–	≤ 500
CNc1cc(Nc2ncc3cc(-c4nccnc4C)cc(C4CC4)c3n2)ccc1P(C)(C)=O [II-77]	–	100 to 500	–	–	≤ 20	–	–	≤ 500
Cc1c[nH]c(=O)cc1-c1cc(C(C)C)c2nc(Nc3cn(C)nc3C)ncc2c1 [III-2]	–	> 2500	–	–	≤ 20	–	–	≤ 500
Cc1c[nH]c(=O)cc1-c1cc(C(C)C)c2nc(Nc3cn(C)nc3C(F)F)ncc2c1 [III-4]	–	500 to 2500	–	–	≤ 20	–	–	500 to 1000
[2H]C([2H])([2H])n1cc(Nc2ncc3cc(-c4cc(=O)[nH]cc4C)cc(C(C)C)c3n2)c(C)n1 [III-9]	–	500 to 2500	–	–	≤ 20	–	–	≤ 500
Cc1c[nH]c(=O)cc1-c1cc(C(C)C)c2nc(Nc3cnn(C4CCN(C)CC4)c3C)ncc2c1 [III-14]	–	500 to 2500	–	–	≤ 20	–	–	500 to 1000
Cc1nn(C)cc1Nc1ncc2cc(-c3cn(C)nc3C)cc(C(C)C)c2n1 [III-87]	–	100 to 500	–	–	≤ 20	–	–	≤ 500
Cc1nn(C)cc1Nc1ncc2cc(-c3c[nH]nc3C)cc(C(C)C)c2n1 [III-88]	–	500 to 2500	–	–	≤ 20	–	–	500 to 1000
Cc1ccnnc1-c1cc(C(C)C)c2nc(Nc3cn(C)nc3C)ncc2c1 [III-90]	–	100 to 500	–	–	≤ 20	–	–	≤ 500
Cc1nn(C)cc1Nc1ncc2cc(-c3cncnc3C)cc(C(C)C)c2n1 [III-92]	–	100 to 500	–	–	≤ 20	–	–	≤ 500
Cc1nn(C)cc1Nc1ncc2cc(-c3nccnc3C)cc(C(C)C)c2n1 [III-99]	–	500 to 2500	–	–	≤ 20	–	–	≤ 500
Cc1nccnc1-c1cc(C(C)C)c2nc(Nc3cn(C)nc3Cl)ncc2c1 [III-101]	–	500 to 2500	–	–	≤ 20	–	–	500 to 1000
Cc1nccnc1-c1cc(C(C)C)c2nc(Nc3cn(C)nc3C(F)F)ncc2c1 [III-102]	–	> 2500	–	–	≤ 20	–	–	500 to 1000
[2H]C([2H])([2H])n1cc(Nc2ncc3cc(-c4nccnc4C)cc(C(C)C)c3n2)c(C)n1 [III-103]	–	100 to 500	–	–	≤ 20	–	–	≤ 500
Cc1ccncc1-c1cc(C(C)C)c2nc(Nc3cn(C)nc3C)ncc2c1 [III-120]	–	100 to 500	–	–	≤ 20	–	–	≤ 500
Cc1ccc(C#N)cc1-c1cc(C(C)C)c2nc(Nc3cn(C)nc3C)ncc2c1 [III-130]	–	500 to 2500	–	–	≤ 20	–	–	≤ 500
Cc1nccnc1-c1cc(C2CC2)c2nc(Nc3cnn(CC(=O)N(C)C)c3)ncc2c1 [III-132]	–	500 to 2500	–	–	≤ 20	–	–	≤ 500
N.N.[Cl][Pt][Cl] [cisplatin, reference compound]	4280	–	1250.42±137.64	11.50	–	298	1380	–
